Test results: US5654315A, “Quinuclidine compounds useful in treating diseases” (Imperial Chemical Industries PLC, priority 1991, dated 1997)

How the values were obtained:
Squalene synthase = target: T1, Squalene synthase (Rattus norvegicus, UniProt Q02769); test: Inhibition of squalene synthase (formation of squalene from tritiated farnesyl pyrophosphate, rat liver microsomes); format: biochemical; settings: rat liver microsomal protein; 20 μM 1-[3H]-farnesyl pyrophosphate; 15 minutes; 37° C.; read-out: IC50 (concentration which results in a 50% inhibition of squalene production)
T1 construct: rat liver microsomal protein; from tissue; host or cells: rat liver microsomes
T1 sequence (Q02769 1-416): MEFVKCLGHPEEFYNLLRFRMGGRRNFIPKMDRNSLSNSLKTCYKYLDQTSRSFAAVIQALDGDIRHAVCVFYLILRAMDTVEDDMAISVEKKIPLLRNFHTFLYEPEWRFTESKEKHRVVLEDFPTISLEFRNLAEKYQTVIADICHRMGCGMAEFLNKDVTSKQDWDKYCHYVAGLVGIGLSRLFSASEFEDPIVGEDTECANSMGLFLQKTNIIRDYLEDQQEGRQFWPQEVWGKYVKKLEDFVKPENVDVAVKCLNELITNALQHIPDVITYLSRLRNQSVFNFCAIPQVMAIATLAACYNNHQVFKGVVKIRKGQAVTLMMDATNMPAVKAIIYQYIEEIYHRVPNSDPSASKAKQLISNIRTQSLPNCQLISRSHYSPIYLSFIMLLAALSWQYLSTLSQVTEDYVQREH
Description: (a) Inhibition of Squalene synthase
In this test, the ability of a compound to prevent the formation of squalene from a radioactive substrate (tritiated farnesyl pyrophosphate) is assessed.
The test compound is incubated at a concentration of 25 micromolar in 200 μl of a buffered solution containing potassium phosphate (50 mM), MgCl2 (4.95 mM), KF (9.9 mM), NADPH (0.9 mM) and rat liver microsomal protein (20 μg). Rat liver microsomes are prepared by the method described in published European Patent Application No. 324,421 and stored in liquid nitrogen prior to assay. Assay vials are kept at 37° C. throughout the incubation.
The reaction is started with the addition of the substrate (1-[^3 H]-farnesyl pyrophosphate), final concentration 20 μM, and stopped after 15 minutes reaction time with the addition of 50 μl of 4% KOH. The reaction products are separated from unreacted substrate after application to a C-18 octadecyl 1ccBond column (Analytichem Int product No. 617101). An aqueous fraction is eluted with 250 μl of 0.1M KOH. Squalene is then eluted with 1.0 ml 10% ethyl acetate in hexane and radioactivity determined. The difference in radioactivity in the presence and absence of the test compound is used to determine the level of inhibition. […] The IC50 can then be determined from a plot of percentage inhibition against concentration of test compound.

[1] = tested on: de novo hepatic cholesterol synthesis; test: Acute rat cholesterol synthesis assay (de novo hepatic cholesterol synthesis from 14C-acetate); format: in vivo; settings: female rats, oral gavage, ip or iv (route not given), 14C-acetate ip 1 hour after dosing
Description: (b) Acute rat cholesterol synthesis assay.
This is an acute in vivo test in the rat to measure de novo hepatic cholesterol synthesis from exogenously administered ^14 C-acetate.
Female rats (35-55 g) are housed in reverse lighting conditions (red light from 0200h-1400h) for a period of about 2 weeks prior to test. Animals are allowed free access to chow and drinking water throughout this period. At test, animals should weigh 125-150 g.
Test compounds may be administered by oral gavage, dissolved or suspended in 0.5% polysorbate, or by ip or iv dosing. Control animals receive vehicle alone. After 1 hour the rats are injected ip with 25 μCi [2-^14 C]-acetate (NEN DUPONT. specific activity, 45-60 mCi/mmol NEC-085H, or AMERSHAM specific activity, 50-60 mCi/mmol CFA 14) in a volume of 0.25 ml saline (100 μCi/ml). After a further hour, rats are terminally anaesthetised with halothane and a blood sample obtained from the abdominal vena cava.
1 ml of plasma is lyophilised and then saponified in 2 ml ethanolic KOH (1 part 33% KOH, 9 parts ethanol) at 75° C. for 2 hours. After addition of an equal quantity of water, non-saponifiable lipids are extracted with two 5 ml volumes of hexane. The hexane extracts are evaporated to dryness and the residues dissolved in ethanol to determine cholesterol specific radioactivity. EC50 values can be determined in the standard way.

Work on c1ccc(-c2ccc(CNC3CN4CCC3CC4)cc2)cc1 (centres unmarked) [Example 5, 3-[(biphenyl-4-ylmethyl)amino]quinuclidine] yielded an IC50 (Squalene synthase) of 140 nM.

For Oc1ccc(-c2ccc(OCC3(O)CN4CCC3CC4)cc2)cc1 (centres unmarked) [Example 17, 3-(4'-hydroxybiphenyl-4-yloxymethyl)quinuclidin-3-ol], the ED50 [1] was 11 mg/kg.
